Results from patent US20110212999A1, “TRIAZOLE DERIVATIVES AND THEIR USE AS NICOTINIC ACETYLCHOLINE RECEPTOR MODULATORS” (NEUROSEARCH A/S, priority 2008, published 2011).

Biological target: T1, human nicotinic acetylcholine receptor subtype a4b2 (Homo sapiens, UniProt P17787+P43681)
T1 construct: expressed in transfected cells; host or cells: HEK-293
Assay: FLIPR nAChR a4b2 positive allosteric modulator activity (shift of nicotine concentration-response)
Format: cell-based
Details: nicotine +/- test compound, HEK-293 cells stably expressing hα4β2
Procedure: Characterization of hα4β2 positive allosteric modulators using FLIPR
The modulator activity is determined as a fluorescence-based assay using a Fluorometric Imaging Plate Reader (FLIPR) as described below in more detail.
Full concentration-response curves of nicotine +/− test compound are generated and delta pEC50 values are calculated based on EC50 values for nicotine +/− test compound. EC50 values (Effective Concentration 50%) represent the concentration of the nicotine, at which the nicotine-induced response is 50% of the maximal nicotine-induced response.
Preferred compounds of the invention show an activity determined as delta pEC50 values above 1 in the presence of 10 μM of the test compound compared to nicotine alone.

T1 sequence (P43681 29-627 limits assumed): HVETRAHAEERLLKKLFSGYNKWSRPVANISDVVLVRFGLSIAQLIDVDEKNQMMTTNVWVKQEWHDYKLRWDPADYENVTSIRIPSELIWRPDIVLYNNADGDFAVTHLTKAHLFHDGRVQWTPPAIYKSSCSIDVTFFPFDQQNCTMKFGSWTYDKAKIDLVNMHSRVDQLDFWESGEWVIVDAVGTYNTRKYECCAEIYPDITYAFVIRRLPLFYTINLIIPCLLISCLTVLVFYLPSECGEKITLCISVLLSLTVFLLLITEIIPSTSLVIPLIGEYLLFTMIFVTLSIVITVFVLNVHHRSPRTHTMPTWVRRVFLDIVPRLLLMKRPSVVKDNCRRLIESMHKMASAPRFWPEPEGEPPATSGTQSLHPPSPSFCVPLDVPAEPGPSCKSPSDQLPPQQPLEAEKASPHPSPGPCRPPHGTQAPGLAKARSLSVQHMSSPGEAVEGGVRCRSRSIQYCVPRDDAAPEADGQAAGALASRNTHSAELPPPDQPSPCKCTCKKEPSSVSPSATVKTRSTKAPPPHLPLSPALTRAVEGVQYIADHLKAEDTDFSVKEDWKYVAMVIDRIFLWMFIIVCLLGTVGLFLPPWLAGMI
T1 sequence (P17787 26-502): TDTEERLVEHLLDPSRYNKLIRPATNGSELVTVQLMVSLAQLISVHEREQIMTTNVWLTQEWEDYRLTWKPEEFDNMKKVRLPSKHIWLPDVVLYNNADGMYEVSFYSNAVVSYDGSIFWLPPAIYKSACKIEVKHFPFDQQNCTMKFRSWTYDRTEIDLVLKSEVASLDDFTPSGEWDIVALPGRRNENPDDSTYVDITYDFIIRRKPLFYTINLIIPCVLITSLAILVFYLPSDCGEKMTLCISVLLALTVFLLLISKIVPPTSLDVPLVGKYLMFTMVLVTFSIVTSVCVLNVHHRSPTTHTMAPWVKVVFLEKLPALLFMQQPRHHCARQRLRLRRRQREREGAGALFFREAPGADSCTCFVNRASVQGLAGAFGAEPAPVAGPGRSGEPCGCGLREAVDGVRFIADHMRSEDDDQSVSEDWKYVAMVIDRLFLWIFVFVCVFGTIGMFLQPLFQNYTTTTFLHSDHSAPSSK

SMILES | Delta pEC50
N#Cc1ccc(-n2cc(-c3cccnc3)nn2)o1 [Compound 2, 5-(4-pyridin-3-yl-[1,2,3]triazol-1-yl)-furan-2-carbonitrile] | 1.2
N#Cc1cccc(-n2cc(-c3cccnc3)nn2)c1 [Compound 1, 3-(4-Pyridin-3-yl-[1,2,3]triazol-1-yl)-benzonitrile] | 1.6

Test system: not given
Assay: not given
Details: not given

SMILES | melting point
Fc1cccc(Cl)c1-c1cn(-c2cccnc2)nn1 [Compound 1E, 3-[4-(2-Chloro-6-fluoro-phenyl)-[1,2,3]triazol-1-yl]-pyridine] | 94 to 95.2 °C
N#Cc1cccc(-n2cc(-c3ccc(Cl)nc3)nn2)c1 [Compound 1H, 3-[4-(6-Chloro-pyridin-3-yl)-[1,2,3]triazol-1-yl]-benzonitrile] | 219.3 to 220 °C
N#Cc1cccc(-n2cc(-c3cccnc3Cl)nn2)c1 [Compound 1J, 3-[4-(2-Chloro-pyridin-3-yl)-[1,2,3]triazol-1-yl]-benzonitrile] | 181 to 182.6 °C
[C-]#[N+]c1cccc(-c2cn(-c3cccnc3Cl)nn2)c1 [Compound 1K, 2-Chloro-3-[4-(3-isocyano-phenyl)-[1,2,3]triazol-1-yl]-pyridine] | 184 to 185 °C
[C-]#[N+]c1cccc(-c2cn(-c3ccc(Cl)nc3)nn2)c1 [Compound 1G, 2-Chloro-5-[4-(3-isocyano-phenyl)-[1,2,3]triazol-1-yl]-pyridine] | 202.2 to 203.6 °C

The remaining lines, values ahead:

melting point | SMILES
190.6 to 191.7 °C | Fc1cncc(-n2cc(-c3cccnc3)nn2)c1 [Compound 1O, 3-Fluoro-5-(4-pyridin-3-yl-[1,2,3]triazol-1-yl)-pyridine]
217 to 219 °C | c1cncc(-c2cn(-c3cccnc3)nn2)c1 [Compound 1B, 3-(1-Pyridin-3-yl-1H-[1,2,3]triazol-4-yl)-pyridine]
205.6 to 206.9 °C | COc1ccc(-c2cn(-c3cccnc3)nn2)cn1 [Compound 1N, 2-Methoxy-5-(1-pyridin-3-yl-1H-[1,2,3]triazol-4-yl)-pyridine]
190.2 to 191.6 °C | Fc1cncc(-c2cn(-c3cccnc3)nn2)c1 [Compound 1L, 3-Fluoro-5-(1-pyridin-3-yl-1H-[1,2,3]triazol-4-yl)-pyridine]
94.5 to 97.1 °C | Fc1cccc(Cl)c1-n1cc(-c2cccnc2)nn1 [Compound 1I, 3-[1-(2-Chloro-6-fluoro-phenyl)-1H-[1,2,3]triazol-4-yl]-pyridine]
156.3 to 158.2 °C | Fc1cccc(-n2cc(-c3cccnc3)nn2)c1 [Compound 1R, 3-[1-(3-Fluoro-phenyl)-1H-[1,2,3]triazol-4-yl]-pyridine]
179.9 to 190.9 °C | Fc1ccc(-n2cc(-c3cccnc3)nn2)cc1 [Compound 1S, 3-[1-(4-Fluoro-phenyl)-1H-[1,2,3]triazol-4-yl]-pyridine]
187 to 188.7 °C | Fc1ccc(-c2cn(-c3cccnc3)nn2)cn1 [Compound 1M, 2-Fluoro-5-(1-pyridin-3-yl-1H-[1,2,3]triazol-4-yl)-pyridine]
221.3 to 222.6 °C | Fc1ccc(-n2cc(-c3cccnc3)nn2)cn1 [Compound 1P, 2-Fluoro-5-(4-pyridin-3-yl-[1,2,3]triazol-1-yl)-pyridine]
226.2 to 227.8 °C | Brc1cncc(-n2cc(-c3cccnc3)nn2)c1 [Compound 1Q, 3-Bromo-5-(4-pyridin-3-yl-[1,2,3]triazol-1-yl)-pyridine]
